Results: ChEMBL document CHEMBL5303304, “EUbOPEN Chemogenomics Library - IncuCyte” (2023)

Key:
Assay type in all cases: toxicity, cell-based
U2OS = assay: Incucyte cell viability with U2OS; details: human, 10 µM, compound concentration 10 uM
Fibroblast = assay: Incucyte cell viability with human fibroblast; details: 10 µM, compound concentration 10 uM
HEK-293T = assay: Incucyte cell viability with HEK293T; details: human, 10 µM, compound concentration 10 uM
Note: unitless GR value; below 1 slowed growth and below 0 cell loss.

CCc1ccc(N(CC(C)C)S(=O)(=O)c2ccc(OCC3CCOCC3)c(CO)c2)cc1 [GSK2981278]
Growth Rate (U2OS; 0 h, replicate number 1): 0.11
Growth Rate (U2OS; 0 h, replicate number 2): 0.13
Growth Rate (U2OS; 6 h, replicate number 1): 0.9
Growth Rate (U2OS; 6 h, replicate number 2): 0.96
Growth Rate (U2OS; 18 h, replicate number 1): 0.98
Growth Rate (Fibroblast; 0 h, replicate number 2): 0.86
Growth Rate (Fibroblast; 18 h, replicate number 2): 0.7
Growth Rate (Fibroblast; 24 h, replicate number 1): 0.91
Growth Rate (Fibroblast; 24 h, replicate number 2): 0.85
Growth Rate (HEK-293T; 0 h, replicate number 1): -0.35
Growth Rate (HEK-293T; 6 h, replicate number 1): 0.86
Growth Rate (HEK-293T; 12 h, replicate number 1): 0.83
Growth Rate (HEK-293T; 12 h, replicate number 2): 0.5
Growth Rate (HEK-293T; 18 h, replicate number 1): 0.81
Growth Rate (HEK-293T; 18 h, replicate number 2): 0.48
Growth Rate (HEK-293T; 24 h, replicate number 1): 0.82
Growth Rate (HEK-293T; 24 h, replicate number 2): 0.53

CC(C)(C)OC(=O)CN(Cc1ccc(Cl)cc1)Cc1ccc([N+](=O)[O-])s1 [GSK-4112]
Growth Rate (U2OS; 12 h, replicate number 1): 0.82
Growth Rate (U2OS; 18 h, replicate number 1): 0.94
Growth Rate (U2OS; 24 h, replicate number 1): 0.95
Growth Rate (Fibroblast; 6 h, replicate number 1): 0.7
Growth Rate (Fibroblast; 6 h, replicate number 2): -0.08
Growth Rate (Fibroblast; 12 h, replicate number 1): 0.71
Growth Rate (Fibroblast; 12 h, replicate number 2): 0.06
Growth Rate (Fibroblast; 18 h, replicate number 1): 0.74
Growth Rate (Fibroblast; 18 h, replicate number 2): 0.06
Growth Rate (Fibroblast; 24 h, replicate number 1): 0.72
Growth Rate (Fibroblast; 24 h, replicate number 2): 0.19
Growth Rate (HEK-293T; 0 h, replicate number 1): 0.04
Growth Rate (HEK-293T; 0 h, replicate number 2): 0.51
Growth Rate (HEK-293T; 6 h, replicate number 1): 0.86
Growth Rate (HEK-293T; 6 h, replicate number 2): 0.58
Growth Rate (HEK-293T; 12 h, replicate number 1): 0.78
Growth Rate (HEK-293T; 12 h, replicate number 2): 0.91
Growth Rate (HEK-293T; 18 h, replicate number 1): 0.76
Growth Rate (HEK-293T; 18 h, replicate number 2): 0.75
Growth Rate (HEK-293T; 24 h, replicate number 2): 0.92

CCCCCCCN(CCc1ccc(SC(C)(C)C(=O)O)cc1)C(=O)Nc1ccc(F)cc1F [GSK-9578]
Growth Rate (U2OS; 6 h, replicate number 1): 0
Growth Rate (U2OS; 12 h, replicate number 1): 0.86
Growth Rate (Fibroblast; 0 h, replicate number 1): 0.58
Growth Rate (Fibroblast; 6 h, replicate number 1): 0.88
Growth Rate (Fibroblast; 6 h, replicate number 2): 0.55
Growth Rate (Fibroblast; 12 h, replicate number 1): 0.69
Growth Rate (Fibroblast; 12 h, replicate number 2): 0.91
Growth Rate (Fibroblast; 18 h, replicate number 1): 0.7
Growth Rate (Fibroblast; 24 h, replicate number 1): 0.88
Growth Rate (HEK-293T; 0 h, replicate number 1): -0.27
Growth Rate (HEK-293T; 0 h, replicate number 2): -0.91
Growth Rate (HEK-293T; 6 h, replicate number 2): 0.66
Growth Rate (HEK-293T; 12 h, replicate number 2): 0.73
Growth Rate (HEK-293T; 18 h, replicate number 2): 0.5
Growth Rate (HEK-293T; 24 h, replicate number 2): 0.55

C[C@@H](Oc1cc(-n2cnc3ccc(OC4CCN(C)CC4)cc32)sc1C(N)=O)c1ccccc1Cl [GSK-579289A]
Growth Rate (U2OS; 0 h, replicate number 2): 0.48
Growth Rate (U2OS; 12 h, replicate number 1): 0.83
Growth Rate (U2OS; 12 h, replicate number 2): 0.84
Growth Rate (U2OS; 18 h, replicate number 1): 0.65
Growth Rate (U2OS; 24 h, replicate number 1): 0.93
Growth Rate (U2OS; 24 h, replicate number 2): 0.79
Growth Rate (Fibroblast; 6 h, replicate number 1): 0.99
Growth Rate (Fibroblast; 6 h, replicate number 2): 1
Growth Rate (Fibroblast; 12 h, replicate number 1): 0.94
Growth Rate (Fibroblast; 18 h, replicate number 1): 0.83
Growth Rate (Fibroblast; 18 h, replicate number 2): 0.97
Growth Rate (HEK-293T; 0 h, replicate number 2): 0.69
Growth Rate (HEK-293T; 6 h, replicate number 1): 0.7
Growth Rate (HEK-293T; 6 h, replicate number 2): 0.94
Growth Rate (HEK-293T; 12 h, replicate number 1): 0.7
Growth Rate (HEK-293T; 12 h, replicate number 2): 0.97
Growth Rate (HEK-293T; 18 h, replicate number 1): 0.82
Growth Rate (HEK-293T; 18 h, replicate number 2): 1
Growth Rate (HEK-293T; 24 h, replicate number 1): 0.93
Growth Rate (HEK-293T; 24 h, replicate number 2): 0.99

O=C(O)c1ccc(-c2c[nH]c3ncc(-c4ccccc4)cc23)cc1C1CCCC1 [GSK-650394]
Growth Rate (U2OS; 0 h, replicate number 1): 0.01
Growth Rate (U2OS; 6 h, replicate number 1): 0.39
Growth Rate (U2OS; 12 h, replicate number 1): 0.79
Growth Rate (U2OS; 12 h, replicate number 2): 0.98
Growth Rate (U2OS; 18 h, replicate number 1): 0.86
Growth Rate (U2OS; 18 h, replicate number 2): 0.92
Growth Rate (U2OS; 24 h, replicate number 2): 0.96
Growth Rate (Fibroblast; 0 h, replicate number 2): -0.45
Growth Rate (Fibroblast; 6 h, replicate number 1): 0.36
Growth Rate (Fibroblast; 6 h, replicate number 2): -0.95
Growth Rate (Fibroblast; 12 h, replicate number 1): -1
Growth Rate (Fibroblast; 12 h, replicate number 2): 0.77
Growth Rate (Fibroblast; 18 h, replicate number 1): 0.91
Growth Rate (Fibroblast; 24 h, replicate number 1): 0.38
Growth Rate (HEK-293T; 0 h, replicate number 1): 0.23
Growth Rate (HEK-293T; 0 h, replicate number 2): 0.55

CN(C)c1cc2c(Nc3ccc4c(cnn4Cc4ccccc4)c3)ncnc2cn1 [GW282974X]
Growth Rate (U2OS; 0 h, replicate number 1): -0.05
Growth Rate (U2OS; 6 h, replicate number 2): 0.77
Growth Rate (U2OS; 12 h, replicate number 1): 0.77
Growth Rate (U2OS; 12 h, replicate number 2): 0.87
Growth Rate (U2OS; 18 h, replicate number 1): 0.83
Growth Rate (U2OS; 18 h, replicate number 2): 0.91
Growth Rate (U2OS; 24 h, replicate number 2): 0.65
Growth Rate (Fibroblast; 0 h, replicate number 1): -1
Growth Rate (Fibroblast; 18 h, replicate number 2): 0.86
Growth Rate (Fibroblast; 24 h, replicate number 1): 0.77
Growth Rate (Fibroblast; 24 h, replicate number 2): 0.69
Growth Rate (HEK-293T; 0 h, replicate number 1): -1
Growth Rate (HEK-293T; 0 h, replicate number 2): -0.53
Growth Rate (HEK-293T; 12 h, replicate number 2): 0.95
Growth Rate (HEK-293T; 18 h, replicate number 1): 0.8
Growth Rate (HEK-293T; 18 h, replicate number 2): 0.77
Growth Rate (HEK-293T; 24 h, replicate number 1): 0.59
Growth Rate (HEK-293T; 24 h, replicate number 2): 0.61

O=C1Nc2ccc(C(=O)c3ccco3)cc2C1=Cc1cc(Cl)c(O)c(Cl)c1 [GW406108X]
Growth Rate (U2OS; 6 h, replicate number 2): -0.19
Growth Rate (U2OS; 12 h, replicate number 1): 0.5
Growth Rate (U2OS; 12 h, replicate number 2): 0.24
Growth Rate (U2OS; 18 h, replicate number 1): 0.4
Growth Rate (U2OS; 18 h, replicate number 2): 0.33
Growth Rate (U2OS; 24 h, replicate number 1): 0.56
Growth Rate (U2OS; 24 h, replicate number 2): 0.38
Growth Rate (Fibroblast; 0 h, replicate number 1): -1
Growth Rate (Fibroblast; 12 h, replicate number 2): 1
Growth Rate (Fibroblast; 18 h, replicate number 1): 1
Growth Rate (Fibroblast; 18 h, replicate number 2): 0.83
Growth Rate (Fibroblast; 24 h, replicate number 1): 0.7
Growth Rate (Fibroblast; 24 h, replicate number 2): 0.64
Growth Rate (HEK-293T; 0 h, replicate number 1): -1
Growth Rate (HEK-293T; 0 h, replicate number 2): 0.57
Growth Rate (HEK-293T; 6 h, replicate number 1): 0.79
Growth Rate (HEK-293T; 6 h, replicate number 2): 0.56
Growth Rate (HEK-293T; 12 h, replicate number 1): 0.25
Growth Rate (HEK-293T; 12 h, replicate number 2): 0.31
Growth Rate (HEK-293T; 18 h, replicate number 1): 0.41
Growth Rate (HEK-293T; 18 h, replicate number 2): 0.17
Growth Rate (HEK-293T; 24 h, replicate number 1): 0.24
Growth Rate (HEK-293T; 24 h, replicate number 2): 0.11

Cc1cc(SCc2sc(-c3ccc(C(F)(F)F)cc3)nc2C)ccc1OCC(=O)O [GW501516]
Growth Rate (U2OS; 0 h, replicate number 2): 0.72
Growth Rate (U2OS; 6 h, replicate number 2): 0.95
Growth Rate (U2OS; 12 h, replicate number 2): 0.77
Growth Rate (U2OS; 18 h, replicate number 2): 0.92
Growth Rate (U2OS; 24 h, replicate number 2): 0.98
Growth Rate (Fibroblast; 0 h, replicate number 2): 0.89
Growth Rate (Fibroblast; 6 h, replicate number 2): 0.42
Growth Rate (Fibroblast; 12 h, replicate number 1): 0.83
Growth Rate (Fibroblast; 12 h, replicate number 2): 0.31
Growth Rate (Fibroblast; 18 h, replicate number 2): 0.73
Growth Rate (Fibroblast; 24 h, replicate number 2): 0.83
Growth Rate (HEK-293T; 0 h, replicate number 2): -0.84
Growth Rate (HEK-293T; 6 h, replicate number 1): 0.99
Growth Rate (HEK-293T; 6 h, replicate number 2): 0.71
Growth Rate (HEK-293T; 12 h, replicate number 2): 0.95
Growth Rate (HEK-293T; 18 h, replicate number 1): 1
Growth Rate (HEK-293T; 18 h, replicate number 2): 0.93
Growth Rate (HEK-293T; 24 h, replicate number 1): 0.98
Growth Rate (HEK-293T; 24 h, replicate number 2): 0.83

CCn1c(-c2nonc2N)nc2ccccc21 [GW549034X]
Growth Rate (U2OS; 0 h, replicate number 1): -1
Growth Rate (U2OS; 18 h, replicate number 2): 0.97
Growth Rate (U2OS; 24 h, replicate number 2): 0.93
Growth Rate (Fibroblast; 0 h, replicate number 1): -1
Growth Rate (Fibroblast; 0 h, replicate number 2): -0.96
Growth Rate (HEK-293T; 0 h, replicate number 1): -1
Growth Rate (HEK-293T; 0 h, replicate number 2): -0.14

Cc1nc(-c2ccc(C(F)(F)F)cc2)sc1C(=O)NCc1ccc(OC(C)(C)C(=O)O)cc1 [GW590735]
Growth Rate (U2OS; 0 h, replicate number 1): -0.11
Growth Rate (U2OS; 6 h, replicate number 1): 0.91
Growth Rate (U2OS; 12 h, replicate number 1): 0.91
Growth Rate (U2OS; 18 h, replicate number 1): 0.93
Growth Rate (U2OS; 24 h, replicate number 1): 0.97
Growth Rate (Fibroblast; 0 h, replicate number 2): 0.77
Growth Rate (Fibroblast; 6 h, replicate number 1): 0.76
Growth Rate (Fibroblast; 6 h, replicate number 2): 0.99
Growth Rate (Fibroblast; 12 h, replicate number 1): 0.82
Growth Rate (Fibroblast; 18 h, replicate number 1): 0.71
Growth Rate (Fibroblast; 24 h, replicate number 1): 0.83
Growth Rate (HEK-293T; 0 h, replicate number 1): 0.96
Growth Rate (HEK-293T; 0 h, replicate number 2): 0.73
Growth Rate (HEK-293T; 6 h, replicate number 2): 0.83
Growth Rate (HEK-293T; 12 h, replicate number 2): 0.93
Growth Rate (HEK-293T; 18 h, replicate number 2): 0.92
Growth Rate (HEK-293T; 24 h, replicate number 2): 0.72

CCS(=O)(=O)c1ccc(OC)c(Nc2ncc(-c3cccc(F)c3)o2)c1 [GW621970X]
Growth Rate (U2OS; 6 h, replicate number 2): 0.74
Growth Rate (U2OS; 12 h, replicate number 2): 0.84
Growth Rate (U2OS; 18 h, replicate number 1): 0.79
Growth Rate (U2OS; 18 h, replicate number 2): 0.86
Growth Rate (U2OS; 24 h, replicate number 1): 0.94
Growth Rate (U2OS; 24 h, replicate number 2): 0.77
Growth Rate (Fibroblast; 0 h, replicate number 2): -0.51
Growth Rate (Fibroblast; 6 h, replicate number 1): -0.04
Growth Rate (Fibroblast; 6 h, replicate number 2): 0.01
Growth Rate (Fibroblast; 12 h, replicate number 1): 0.4
Growth Rate (Fibroblast; 12 h, replicate number 2): 0.24
Growth Rate (Fibroblast; 18 h, replicate number 1): 0.72
Growth Rate (Fibroblast; 18 h, replicate number 2): 0.7
Growth Rate (Fibroblast; 24 h, replicate number 1): 0.73
Growth Rate (Fibroblast; 24 h, replicate number 2): 0.99
Growth Rate (HEK-293T; 6 h, replicate number 1): -0.48
Growth Rate (HEK-293T; 6 h, replicate number 2): -0.44
Growth Rate (HEK-293T; 12 h, replicate number 1): -0.12
Growth Rate (HEK-293T; 12 h, replicate number 2): 0.2
Growth Rate (HEK-293T; 18 h, replicate number 1): 0.22
Growth Rate (HEK-293T; 18 h, replicate number 2): 0.63
Growth Rate (HEK-293T; 24 h, replicate number 1): 0.43
Growth Rate (HEK-293T; 24 h, replicate number 2): 0.8
